Tests used:
[1] = target: T1, rat VMAT2 (Rattus norvegicus, UniProt Q01827); test: [3H]DA uptake assay in rat striatal synaptosomes; type: biochemical
T1 construct: in vitro [^3H]DA uptake assay in rat striatal synaptosomes; from tissue; host or cells: rat striatal synaptosomes / vesicular suspension
Procedure: [^3H]DA (dihydroxyphenylethyethylamine, 3,4-[ring-2,5,6-^3H]; specific activity, 28.0 Ci/mmol) was purchased from Perkin Elmer. […] After drying, the filter plate was sealed with unifilter-96 back sealing tape and added 50 μl of microscint-20 (Perkin Elmer), then sealed the top of the filter plate with TopSeal-A. The radioactivity was measured by a TopCount scintillation counter. GraphPad Prism 5.0 was used to analyze data.

[2] = system: locomotor activity of rats; test: Dose-dependent effects on locomotor activity in rats; type: in vivo, rat; details: for reduction rate (RR) of locomotion: 0.5-[…] after dosing
Procedure: Before administration, animals were transported to the test room and allowed to acclimate for at least 1 h. Immediately after drug administration, rats were placed into activity chambers to assess their basal locomotor activity using the TopScan monitoring system. The total travel distance was recorded from 0.5 to 1.5 h after administration in intervals of 10 min.

[3] = system: locomotor activity of rats; test: Time-dependent effects on locomotor activity in rats; type: in vivo, rat; details: SD rats, 1.3 μmol/kg
Procedure: Rats were placed into the detection box after a single intragastric administration at different time points, and two rats from each group were used in each round of the experiment. The TopScan monitoring system was used to record and analyze the locomotor activity of the rats in different periods (0–1, 1–2, 3–4, 5–6, 6–7, and 7–8 h) after administration, and the RR was calculated as previously described.

[4] = Bidirectional permeability in Caco-2 cell monolayers; type: in vitro ADME; details: human, Caco-2, with or without verapamil 30 μM (range covers both); 2.0, 10.0, and 100 µM, presence or absence of verapamil 30 μM, 2 h; read-out: mean Papp (AP→BL)
Procedure: (§1) Caco-2 cells (ATCC, United States) were seeded on a 96-multiwell insert system (Corning, United States) at a density of 1.0 × 10^5 cells/cm^2. After about 24 days of culture, […] permeability was measured to evaluate the integrity of Caco-2 cell monolayers, and the percent of lucifer yellow in basolateral well which should be less than 1%. Before initiating the transport studies, the cell monolayers were washed with warm HBSS. […] Aliquots from the receiver chamber were collected at 2 h after incubation and stored at −20°C until analysis via LC-MS/MS. All experiments were conducted in triplicate. Permeability coefficient (Papp) and the efflux ratio (ER = P app (BL→AP)/P app (AP→BL)) were calculated.

[5] = system: Caco-2 cell monolayers; test: as above; type: in vitro ADME
Procedure: as §1

[6] = Metabolite identification in dog plasma after oral dose; type: in vivo; details: dog plasma after oral administration
Procedure: Male beagle dogs were randomly divided into four groups. […] The dogs were fasted for 12 h before treatment and 4 h after treatment, but they were granted free access to water. Blood was collected from the vein before administration and 0.083 (only for injection groups), 0.25, 0.5, 1, 2, 3, 4, 6, 8, 12 and 24 h, and placed it in heparinized tubes, and centrifuged it at 8,000 rpm for 10 min at 4°C to separate the plasma, which we stored at −20 °C until analysis. The plasma samples were pretreated by protein precipitation with acetonitrile and quantitated by the validated LC-MS/MS (Shimadzu Exion-Triple Quad 4500) method.
Then, four volumes of acetonitrile (containing 0.1% formic acid) were added into the pooled plasma samples to precipitate the proteins. After vortex-mixing and centrifugation, the supernatants were dried under a nitrogen stream. Then, the residues were resuspended in 100 μl of acetonitrile/water (1:1, v/v) with 0.1% formic acid. After centrifugation, the supernatants were analyzed by UPLC–UV-HRMS for metabolite identification.
The analysis was performed on Acquity UPLC system coupled with a diode array detector (Waters Corporation, United States) and Q Exactive™ Orbitrap HRMS (Thermo Electron Corporation, United States). […] The mobile phase was composed water containing 0.1% formic acid (A) and acetonitrile containing 0.1% formic acid (B). The flow rate was 0.40 ml/min. The elution conditions were the following linear gradient for metabolite identify in HLMs: 0–1 min: 95% A, 1–2 min: 80% A, 2–5 min: 80% A, 5–8 min: 70% A, 8–12 min: 30% A, 12–15 min: 5% A, 15–16 min: 95% A, and 16–18 min: 95% A. The elution conditions were the following for metabolite identify in dog plasma: 0–1 min: 95% A, 1–30 min: 70% A, 30–32 min: 30% A, 32–33 min: 5% A, 33–35 min: 95% A, and 35–40 min: 95% A.
HRMS were operated at positive ion mode using a heating electrospray ionization source (HESI). The optimized operating parameters were set as follows: sheath gas (nitrogen) flow rate of 35 psi, aux gas (nitrogen) flow rate of 10 psi, HESI and capillary temperature of 350°C, and spray voltage of 3.5 kV. The metabolites were detected by full MS/dd-MS^2 analysis from m/z 100 to m/z 1,000. The resolution of the first-class scan and second-class scan was 70 000 and 17 500, respectively. The collision energy for collision induced dissociation (NCE) was set to 20, 40 and 60 eV. The loop count was set to five and the dynamic exclusion duration to 10 s. […] Thermo Compound Discover software was used to identify expected and unknown metabolites, and we finally proposed (+)-13e metabolic pathways based on the deduced metabolites and relevant drug biotransformation knowledge.

[7] = Metabolite identification in liver microsomes from humans, dogs and rats (stated across species); type: in vitro ADME, human, dog, rat; details: liver microsomes from humans, rats, and dogs
Procedure: Human, rat and dog liver microsomes were carefully thawed on ice prior to the experiment and diluted to 1 mg/ml in100 mM sodium phosphate buffer (pH 7.4) containing 10 mM magnesium chloride. […] After 3 min of preincubation at 37°C, the reactions were initiated by adding 20 µL of NADPH (20 mM) and then incubated at 37°C in a shaking water bath for 60 min. All samples were prepared in duplicates. The reactions were terminated by adding 600 µl of ice-cold acetonitrile and stored at −20°C until analysis. Control samples without NADPH and 0-time point samples were included. As a positive control, testosterone (10 µM) which was metabolized to produce the hydroxylation metabolite was used as a substrate to confirm the activity of the incubation system. Next, the samples were centrifuged at 13,000 rpm for 10 min, the supernatant was separated and evaporated to dryness under a nitrogen stream. The residue was resuspended in 100 μl of acetonitrile, after centrifugation, the supernatants were analyzed by UPLC–UV-HRMS.
The analysis was performed on Acquity UPLC system coupled with a diode array detector (Waters Corporation, United States) and Q Exactive™ Orbitrap HRMS (Thermo Electron Corporation, United States). […]
HRMS were operated at positive ion mode using a heating electrospray ionization source (HESI). […] The metabolites were detected by full MS/dd-MS^2 analysis from m/z 100 to m/z 1,000. […]

[8] = system: dopamine receptors, serotonin receptors, adrenergic receptors, dopamine transporter, norepinephrine transporter, five serotonin transporter; test: Multi-target activity screen of SpectrumScreen Panel (Eurofins screen); details: serotonin transporters, and so on

T1 sequence (Q01827 whole entry): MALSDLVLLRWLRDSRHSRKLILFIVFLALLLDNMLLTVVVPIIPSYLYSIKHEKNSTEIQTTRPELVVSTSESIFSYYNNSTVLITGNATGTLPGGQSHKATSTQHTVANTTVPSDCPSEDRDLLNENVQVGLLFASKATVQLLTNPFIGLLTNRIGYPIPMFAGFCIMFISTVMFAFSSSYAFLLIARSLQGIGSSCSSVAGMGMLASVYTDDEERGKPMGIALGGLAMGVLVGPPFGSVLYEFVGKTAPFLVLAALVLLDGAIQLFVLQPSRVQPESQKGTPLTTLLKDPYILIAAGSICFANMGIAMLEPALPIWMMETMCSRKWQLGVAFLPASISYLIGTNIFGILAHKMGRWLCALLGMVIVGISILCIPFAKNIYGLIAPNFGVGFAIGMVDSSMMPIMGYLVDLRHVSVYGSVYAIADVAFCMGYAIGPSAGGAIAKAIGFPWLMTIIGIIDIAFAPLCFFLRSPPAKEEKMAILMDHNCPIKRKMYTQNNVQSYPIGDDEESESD

## COc1cc2c(cc1OCC(F)(F)F)CCN1CC(CC(C)C)C(O)CC21 (single isomer, unassigned; (+)) [(+)-13e, (+)-9-(2,2,2-trifluoroethoxy)-α-dihydrotetrabenazine]
[1]; [3H]DA uptake, rat striatal synaptosomes
  IC90: 34.1 nM
[1]; ratio of IC50 vs HTBZ
  inhibitory effect on [3H]DA uptake stronger than that of HTBZ: approximately 5 fold
[2]; SD rats, first dose with significant inhibition of locomotor activity vs NS (p < 0.05)
  starting effective dose: 0.32 µmol/kg
[2]; SD rats, single oral gavage 0.32 μmol/kg
  reduction rate (RR) of locomotion: 58.6%
[2]; SD rats, single oral gavage 1.3 μmol/kg
  reduction rate (RR) of locomotion: 95.5%
[2]; rat locomotor activity
  PD effect stronger than that of VBZ in vivo: approximately 4 fold
[3]
  duration of significant inhibition of locomotor activity: at least 8 h
[4]
  Papp A→B at 2 h: 26 to 35 ×10⁻⁶ cm/s
[5]
  permeability across the Caco-2 cell monolayer: high permeability
[5]; efflux not observed
  substrate of P-gp or breast cancer resistance protein (BCRP): unlikely to be a substrate
[6]
  O-detrifluoroethylation at the nine position: did not occur
[7]
  O-detrifluoroethylation at the nine position: did not occur
[8]
  effects in multi-target activity screen: no effects
